Test results from PMC11154717, “Evaluation of Novel Spiro-pyrrolopyridazine Derivatives as Anticancer Compounds: In Vitro Selective Cytotoxicity, Induction of Apoptosis, EGFR Inhibitory Activity, and Molecular Docking Analysis” (ACS Omega, 2024).

Columns and labels:
Type in all cases: cell-based, human
[1] = system: nontumorigenic HEK-293 cells; assay: XTT cell viability assay, HEK-293
Protocol: (§1) Human breast cancer (MCF-7), human lung cancer (H69AR), and human prostate cancer (PC-3) human nontumorigenic HEK-293 cells were obtained from the Health Protection Agency (UK) and Interlab Cell Line Collection (ICLC, Italy). Cells were maintained in RPMI medium (Sigma) containing 10% heat-inactivated fetal bovine serum, 1% penicillin, and 1% L-glutamine in a 37° humidified CO2 incubator.
(§2) XTT (2,3-bis(2-methoxy-4-nitro-5-sulfophenyl)-2H-tetrazolium-5-carboxanilide) cell viability test was used to determine the cytotoxic activities of SPPs, which were dissolved in dimethyl sulfoxide (DMSO). Cells were seeded in 96-well plates at a density of 10^4/well and treated with increasing concentrations of SPP (1–250 μM) for 24, 48, and 72 h. After the incubation period, 100 μL of XTT was added to all experimental wells, and 96-well plates were incubated at 37 °C for 4 h. After the color change was observed, the absorbance values of the wells were recorded at 570 nm in the microplate reader (Tecan). The IC50 values for all synthesized compounds, representing the concentration needed to inhibit 50% of cancer cell proliferation, were determined using Biosoft CalcuSyn 2.1 software.[13] The following formula was used to calculate selectivity indexes (SIs), which represent the cytotoxic selectivity of SPPs against cancer cells and normal cells (HEK-293): […]

H69AR lung cancer cells = assay: XTT cell viability assay, H69AR; settings: for IC50: XTT, 72 h
Protocol: as §1, §2

[2] = system: MCF-7 breast cancer cells; assay: XTT cell viability assay, MCF-7; settings: for IC50: XTT, 72 h
Protocol: as §1, §2

[3] = system: PC-3 prostate cancer cells; assay: XTT cell viability assay, PC-3; settings: for IC50: XTT, 72 h
Protocol: as §1, §2

| IC50 (H69AR lung cancer cells; Homo sapiens, H69AR) [µM] | IC50 ([2]; Homo sapiens, MCF7) [µM] | IC50 ([3]; Homo sapiens) [µM] | SMILES | IC50 ([1]; Homo sapiens, HEK293, 72 h) [µM] | selectivity index (SI) H69AR (H69AR lung cancer cells; versus HEK-293) | selectivity index (SI) MCF-7 ([2]; versus HEK-293) | selectivity index (SI) PC-3 ([3]; versus HEK-293) | IC50 ([1]; 72 h) [µM] | IC50 (H69AR lung cancer cells) [µM] | IC50 [2] [µM] | IC50 [3] [µM] |
| --- | --- | --- | --- | --- | --- | --- | --- | --- | --- | --- | --- |
| 9.8 ± 0.7 | 10.4 ± 1.5 | 8.3 ± 0.6 | Cc1cccc(C2=NC3(CCCCC3)c3c(-c4ccccc4)nnc(-c4ccccc4)c32)c1 [SPP3] | 7.5 ± 1 | 0.76 | 0.72 | 0.90 |  |  |  |  |
| 92 ± 3.2 | 67.1 ± 0.2 | 85.5 ± 1.2 | CC(C)(C)c1ccc(C2=NC3(CCCCC3)c3c(-c4ccccc4)nnc(-c4ccccc4)c32)cc1 [SPP4] | 55.3 ± 3.6 |  |  |  |  |  |  |  |
|  |  |  | N.N.[Cl][Pt][Cl] [cisplatin, reference compound] |  |  |  |  | 16.4 ± 0.4 | 18.2 ± 0.8 | 16.8 ± 2.4 | 14.9 ± 4.1 |
| 63.9 ± 2.8 | 58.3 ± 0.4 | 76.3 ± 0.2 | Cc1cccc(C2=NC3(CCCCC3)c3c(-c4ccc(F)cc4)nnc(-c4ccccc4)c32)c1 [SPP16] | 64.4 ± 2.3 |  |  |  |  |  |  |  |
| 140 ± 2.4 | 47.6 ± 2 | 24.2 ± 0.8 | Clc1ccc(C2=NC3(CCCCC3)c3c(-c4cccc(Br)c4)nnc(-c4ccccc4)c32)cc1 [SPP20] | 18.3 ± 2.1 |  |  |  |  |  |  |  |
| 63.3 ± 1.4 | 61.9 ± 2.6 | 88.2 ± 3.5 | Cc1ccc(-c2nnc(-c3ccccc3)c3c2C2(CCCCC2)N=C3c2ccc(C(C)(C)C)cc2)cc1 [SPP17] | 74.6 ± 0.7 |  |  |  |  |  |  |  |
| 55.3 ± 1.6 | 41.5 ± 0.8 | 61.4 ± 0.5 | Cc1ccc(-c2nnc(-c3ccccc3)c3c2C2(CCCCC2)N=C3c2ccsc2)cc1 [SPP14] | 12.4 ± 0.2 |  |  |  |  |  |  |  |
| 75.7 ± 3.5 | 95.2 ± 2.4 | 80.5 ± 2.3 | Cc1ccc(-c2nnc(-c3ccccc3)c3c2C2(CCCCC2)N=C3c2ccccc2)cc1 [SPP11] | 87.7 ± 1.6 |  |  |  |  |  |  |  |
| 62.1 ± 1.2 | 57.4 ± 2.8 | 89.2 ± 2.5 | O=[N+]([O-])c1ccc(C2=NC3(CCCCC3)c3c(-c4ccccc4)nnc(-c4ccccc4)c32)cc1 [SPP9] | 47.5 ± 2.6 |  |  |  |  |  |  |  |
| 34.9 ± 2.1 | 38.4 ± 0.7 | 61 ± 2.2 | CC(C)(C)c1ccc(C2=NC3(CCCCC3)c3c(-c4cccc(Br)c4)nnc(-c4ccccc4)c32)cc1 [SPP19] | 33.4 ± 1.6 |  |  |  |  |  |  |  |
| 72.2 ± 3.4 | 69.2 ± 1.2 | 21.1 ± 2.1 | Clc1ccc(C2=NC3(CCCCC3)c3c(-c4ccccc4)nnc(-c4ccccc4)c32)cc1Cl [SPP7] | 55.8 ± 0.6 |  |  |  |  |  |  |  |
| 21.8 ± 0.6 | 54.7 ± 2.9 | 42.7 ± 1.6 | Cc1ccc(-c2nnc(-c3ccccc3)c3c2C2(CCCCC2)N=C3c2ccc(C(F)(F)F)cc2)cc1 [SPP21] | 47.1 ± 0.4 |  |  |  |  |  |  |  |
| 35.2 ± 3.2 | 29.7 ± 2.2 | 2.8 ± 0.4 | Cc1ccc(-c2nnc(-c3ccccc3)c3c2C2(CCCCC2)N=C3c2cccc(C)c2)cc1 [SPP15] | 24.1 ± 1.8 |  |  |  |  |  |  |  |
| 27.1 ± 0.8 | 21.3 ± 0.4 | 35.4 ± 1.6 | c1ccc(C2=NC3(CCCCC3)c3c(-c4ccccc4)nnc(-c4ccccc4)c32)cc1 [SPP1] | 16.5 ± 1.2 |  |  |  |  |  |  |  |
| 70.8 ± 1.3 | 66.4 ± 1.2 | 89.7 ± 2.4 | Brc1cccc(-c2nnc(-c3ccccc3)c3c2C2(CCCCC2)N=C3c2ccccc2)c1 [SPP13] | 52.7 ± 1.4 |  |  |  |  |  |  |  |
| 18.7 ± 1.4 | 24.6 ± 0.3 | 44.2 ± 2.8 | Cc1ccc(C2=NC3(CCCCC3)c3c(-c4ccccc4)nnc(-c4ccccc4)c32)cc1 [SPP2] | 37.7 ± 0.2 |  |  |  |  |  |  |  |
| 71.9 ± 1.8 | 62.2 ± 3.5 | 35.5 ± 0.7 | FC(F)(F)c1ccc(C2=NC3(CCCCC3)c3c(-c4ccccc4)nnc(-c4ccccc4)c32)cc1 [SPP8] | 38.2 ± 1.3 |  |  |  |  |  |  |  |
| 62.7 ± 0.7 | 40.9 ± 1.8 | 70.6 ± 2.4 | COc1ccccc1C1=NC2(CCCCC2)c2c(-c3ccccc3)nnc(-c3ccccc3)c21 [SPP5] | 45.4 ± 2 |  |  |  |  |  |  |  |
| 19.2 ± 0.4 | 12.6 ± 2.6 | 24.2 ± 0.8 | Fc1ccc(-c2nnc(-c3ccccc3)c3c2C2(CCCCC2)N=C3c2ccccc2)cc1 [SPP12] | 40.8 ± 2.2 |  |  |  |  |  |  |  |
| 137 ± 1.6 | 48.2 ± 1.4 | 35.6 ± 0.4 | Clc1ccc(C2=NC3(CCCCC3)c3c(-c4ccccc4)nnc(-c4ccccc4)c32)cc1 [SPP6] | 77.8 ± 1.7 |  |  |  |  |  |  |  |
| 77.4 ± 1.7 | 65.8 ± 1.4 | 59.6 ± 1.4 | CC(C)(C)c1ccc(C2=NC3(CCCCC3)c3c(-c4ccc(F)cc4)nnc(-c4ccccc4)c32)cc1 [SPP18] | 58.5 ± 1.3 |  |  |  |  |  |  |  |

| SMILES | IC50 (H69AR lung cancer cells; Homo sapiens, H69AR) [µM] | IC50 ([2]; Homo sapiens, MCF7) [µM] | IC50 ([3]; Homo sapiens) [µM] | IC50 ([1]; Homo sapiens, HEK293, 72 h) [µM] | selectivity index (SI) H69AR (H69AR lung cancer cells; versus HEK-293) | selectivity index (SI) MCF-7 ([2]; versus HEK-293) | selectivity index (SI) PC-3 ([3]; versus HEK-293) | IC50 ([1]; 72 h) [µM] | IC50 (H69AR lung cancer cells) [µM] | IC50 [2] [µM] | IC50 [3] [µM] |
| --- | --- | --- | --- | --- | --- | --- | --- | --- | --- | --- | --- |
| C#Cc1cccc(Nc2ncnc3cc(OCCOC)c(OCCOC)cc23)c1 [erlotinib, reference compound] | 21.5 ± 1.8 | 19.4 ± 2 | 18.9 ± 3.2 | 14.7 ± 2.8 |  |  |  |  |  |  |  |
